This is an account of results in publication PMC12136037, “Type II kinase inhibitors that target Parkinson’s disease–associated LRRK2” (Science Advances, 2025).

What all share (experiment): DSF 100 kinase selectivity screen;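 also: compound tested at 20 µM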
Format in all cases: binding

Assay [1] has as its target T1, ~100 representative kinases (Homo sapiens, UniProt Q02750).
T1 construct: Recombinant protein kinase domains with a concentration of 2 μM
As to conditions: protein MAP2K1; average of three replicates. In a few lines:
(§1)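 Each kinase domain, at 2 μM, is mixed with 20 μM test compound and SYPRO Orange in Hepes (20 mM, pH 7.5) with 500 mM NaCl. Temperature is then raised at 3°C/min and fluorescence-monitored unfolding yields the melting temperature change, ΔTm in degrees Celsius.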

Assay [2] deals with T2, ~100 representative kinases (Homo sapiens, UniProt P12931).
T2 construct: Recombinant protein kinase domains with a concentration of 2 μM
As to conditions: Protein SRC; DSF; average of three replicates. The method, boiled down: as §1

The target of assay [3] is T3, ~100 representative kinases (Homo sapiens, UniProt P11309).
T3 construct: Recombinant protein kinase domains with a concentration of 2 μM
Particulars: protein PIM1; average of three replicates. The method, boiled down: as §1

In assay [4] the target is T4, ~100 representative kinases (Homo sapiens, UniProt Q9Y243).
T4 construct: Recombinant protein kinase domains with a concentration of 2 μM
As to conditions: Protein AKT3; average of three replicates. In a few lines:
as §1

Assay [5] has as its target T5, ~100 representative kinases (Homo sapiens, UniProt Q9H2X6).
T5 construct: Recombinant protein kinase domains with a concentration of 2 μM
Particulars: protein HIPK2; average of three replicates. In a few lines:
as §1

In assay [6] the target is T6, ~100 representative kinases (Homo sapiens, UniProt Q13188).
T6 construct: Recombinant protein kinase domains with a concentration of 2 μM
T6 sequence (Q13188 1-491): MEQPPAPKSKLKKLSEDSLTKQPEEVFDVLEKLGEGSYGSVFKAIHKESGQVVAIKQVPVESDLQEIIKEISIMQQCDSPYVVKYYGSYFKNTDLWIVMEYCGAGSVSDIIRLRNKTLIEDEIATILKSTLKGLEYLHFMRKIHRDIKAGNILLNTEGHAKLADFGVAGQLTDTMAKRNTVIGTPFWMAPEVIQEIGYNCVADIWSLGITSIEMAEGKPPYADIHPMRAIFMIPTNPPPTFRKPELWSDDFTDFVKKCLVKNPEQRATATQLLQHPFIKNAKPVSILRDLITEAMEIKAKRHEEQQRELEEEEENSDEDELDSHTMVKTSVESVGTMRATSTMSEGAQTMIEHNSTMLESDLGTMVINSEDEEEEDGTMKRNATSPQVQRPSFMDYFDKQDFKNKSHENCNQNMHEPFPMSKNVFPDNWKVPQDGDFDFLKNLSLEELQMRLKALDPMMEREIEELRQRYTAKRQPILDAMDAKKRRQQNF
As to conditions: Protein STK3; DSF; average of three replicates. The method, boiled down:
as §1

Assay [7] addresses T7, ~100 representative kinases (Homo sapiens, UniProt P49137).
T7 construct: Recombinant protein kinase domains with a concentration of 2 μM
Particulars: protein MAPKAPK2; average of three replicates. The method, boiled down:
as §1

Assay [8] has as its target T8, ~100 representative kinases (Homo sapiens, UniProt Q96GD4).
T8 construct: Recombinant protein kinase domains with a concentration of 2 μM
Particulars: Protein AURKB; average of three replicates. The method, boiled down:
as §1

The target in assay [9] is T9, ~100 representative kinases (Homo sapiens, UniProt P45984).
T9 construct: Recombinant protein kinase domains with a concentration of 2 μM
Particulars: protein MAPK9; average of three replicates. In a few lines: as §1

Assay [10] concerns the target T10, ~100 representative kinases (Homo sapiens, UniProt O14965).
T10 construct: Recombinant protein kinase domains with a concentration of 2 μM
T10 sequence (O14965 1-403): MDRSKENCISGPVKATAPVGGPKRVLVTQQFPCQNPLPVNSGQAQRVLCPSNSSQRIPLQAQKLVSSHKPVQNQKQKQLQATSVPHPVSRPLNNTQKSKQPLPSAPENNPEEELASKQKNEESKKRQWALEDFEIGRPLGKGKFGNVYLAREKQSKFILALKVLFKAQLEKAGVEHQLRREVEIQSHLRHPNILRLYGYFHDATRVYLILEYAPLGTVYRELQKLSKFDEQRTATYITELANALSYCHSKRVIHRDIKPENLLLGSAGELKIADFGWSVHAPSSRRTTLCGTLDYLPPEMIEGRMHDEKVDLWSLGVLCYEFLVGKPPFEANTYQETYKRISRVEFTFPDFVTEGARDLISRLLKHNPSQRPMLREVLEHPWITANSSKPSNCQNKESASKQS
Particulars: Protein STK6; DSF; average of three replicates. In a few lines:
as §1

The target of assay [11] is T11, ~100 representative kinases (Homo sapiens, UniProt Q00532).
T11 construct: Recombinant protein kinase domains with a concentration of 2 μM
As to conditions: Protein CDKL1; average of three replicates. In a few lines:
as §1

Assay [12] deals with T12, ~100 representative kinases (Homo sapiens, UniProt O14733).
T12 construct: Recombinant protein kinase domains with a concentration of 2 μM
T12 sequence (O14733 1-419): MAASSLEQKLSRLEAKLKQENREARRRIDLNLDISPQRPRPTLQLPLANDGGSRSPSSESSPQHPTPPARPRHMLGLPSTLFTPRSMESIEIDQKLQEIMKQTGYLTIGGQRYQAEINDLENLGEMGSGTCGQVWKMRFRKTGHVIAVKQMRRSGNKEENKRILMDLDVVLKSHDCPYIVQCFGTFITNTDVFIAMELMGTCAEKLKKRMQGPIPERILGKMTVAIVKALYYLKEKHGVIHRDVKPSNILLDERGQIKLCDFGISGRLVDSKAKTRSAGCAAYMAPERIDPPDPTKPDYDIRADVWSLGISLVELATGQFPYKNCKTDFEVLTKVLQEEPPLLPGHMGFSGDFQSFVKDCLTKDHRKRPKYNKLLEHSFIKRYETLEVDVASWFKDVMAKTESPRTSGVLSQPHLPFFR
As to conditions: protein MAP2K7; average of three replicates. The method, boiled down: as §1

Assay [13] addresses T13, ~100 representative kinases (Homo sapiens, UniProt P45983).
T13 construct: Recombinant protein kinase domains with a concentration of 2 μM
As to conditions: protein MAPK8; average of three replicates. In a few lines:
as §1

Assay [14] deals with T14, ~100 representative kinases (Homo sapiens, UniProt Q96RR4).
T14 construct: Recombinant protein kinase domains with a concentration of 2 μM
Particulars: Protein CAMKK2; average of three replicates. In a few lines:
as §1

T9 sequence (P45984 whole entry, the tested form may be a part): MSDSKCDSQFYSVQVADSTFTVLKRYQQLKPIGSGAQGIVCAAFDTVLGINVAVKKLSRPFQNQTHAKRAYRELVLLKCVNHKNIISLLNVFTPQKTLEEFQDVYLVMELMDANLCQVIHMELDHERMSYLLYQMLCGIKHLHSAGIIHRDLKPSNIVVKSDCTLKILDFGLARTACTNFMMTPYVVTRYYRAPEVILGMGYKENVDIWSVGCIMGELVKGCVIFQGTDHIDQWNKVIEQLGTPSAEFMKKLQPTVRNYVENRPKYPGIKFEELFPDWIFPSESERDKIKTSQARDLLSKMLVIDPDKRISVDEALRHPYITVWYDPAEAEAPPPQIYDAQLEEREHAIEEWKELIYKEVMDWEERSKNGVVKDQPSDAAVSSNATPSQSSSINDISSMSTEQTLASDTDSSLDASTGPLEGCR
T1 sequence (Q02750 whole entry, the tested form may be a part): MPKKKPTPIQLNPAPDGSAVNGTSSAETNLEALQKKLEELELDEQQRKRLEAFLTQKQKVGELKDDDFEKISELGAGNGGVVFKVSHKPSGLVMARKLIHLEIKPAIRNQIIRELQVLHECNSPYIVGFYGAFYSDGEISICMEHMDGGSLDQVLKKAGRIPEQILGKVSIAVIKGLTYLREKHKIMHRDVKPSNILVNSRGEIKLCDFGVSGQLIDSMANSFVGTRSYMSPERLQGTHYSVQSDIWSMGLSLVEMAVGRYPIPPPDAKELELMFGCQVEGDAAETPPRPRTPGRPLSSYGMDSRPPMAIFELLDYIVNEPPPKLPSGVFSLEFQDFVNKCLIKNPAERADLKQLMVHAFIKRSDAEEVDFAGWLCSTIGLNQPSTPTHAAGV
T3 sequence (P11309 whole entry, the tested form may be a part): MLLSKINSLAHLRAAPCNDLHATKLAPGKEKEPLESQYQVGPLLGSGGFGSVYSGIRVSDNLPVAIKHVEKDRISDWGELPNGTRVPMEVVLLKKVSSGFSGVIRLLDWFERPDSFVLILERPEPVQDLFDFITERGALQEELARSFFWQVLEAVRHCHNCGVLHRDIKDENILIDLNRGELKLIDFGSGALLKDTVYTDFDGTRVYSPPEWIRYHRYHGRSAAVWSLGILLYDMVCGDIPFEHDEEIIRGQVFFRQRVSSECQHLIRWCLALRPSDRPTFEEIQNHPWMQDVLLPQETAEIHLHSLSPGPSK
T13 sequence (P45983 whole entry, the tested form may be a part): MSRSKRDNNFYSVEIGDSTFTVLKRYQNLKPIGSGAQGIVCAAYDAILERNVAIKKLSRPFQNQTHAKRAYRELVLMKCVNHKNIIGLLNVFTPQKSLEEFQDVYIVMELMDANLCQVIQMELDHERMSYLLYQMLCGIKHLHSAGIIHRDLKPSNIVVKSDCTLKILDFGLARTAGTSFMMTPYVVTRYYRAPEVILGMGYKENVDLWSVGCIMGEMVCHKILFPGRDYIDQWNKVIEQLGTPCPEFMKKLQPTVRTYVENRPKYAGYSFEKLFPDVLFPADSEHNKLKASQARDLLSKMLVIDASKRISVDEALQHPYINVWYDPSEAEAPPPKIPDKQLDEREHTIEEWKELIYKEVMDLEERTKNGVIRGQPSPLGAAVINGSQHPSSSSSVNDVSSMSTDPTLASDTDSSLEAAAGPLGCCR
T7 sequence (P49137 whole entry, the tested form may be a part): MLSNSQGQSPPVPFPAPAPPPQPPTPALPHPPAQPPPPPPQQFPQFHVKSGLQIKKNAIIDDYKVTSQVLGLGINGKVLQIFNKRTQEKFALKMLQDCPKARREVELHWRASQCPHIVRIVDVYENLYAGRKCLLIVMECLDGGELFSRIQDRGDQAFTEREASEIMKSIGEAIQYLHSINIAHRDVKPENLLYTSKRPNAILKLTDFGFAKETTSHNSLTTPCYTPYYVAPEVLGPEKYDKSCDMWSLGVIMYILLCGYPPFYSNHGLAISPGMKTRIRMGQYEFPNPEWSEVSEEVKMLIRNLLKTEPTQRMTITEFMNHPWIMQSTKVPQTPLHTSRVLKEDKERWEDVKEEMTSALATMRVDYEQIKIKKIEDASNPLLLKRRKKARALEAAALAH
T8 sequence (Q96GD4 whole entry, the tested form may be a part): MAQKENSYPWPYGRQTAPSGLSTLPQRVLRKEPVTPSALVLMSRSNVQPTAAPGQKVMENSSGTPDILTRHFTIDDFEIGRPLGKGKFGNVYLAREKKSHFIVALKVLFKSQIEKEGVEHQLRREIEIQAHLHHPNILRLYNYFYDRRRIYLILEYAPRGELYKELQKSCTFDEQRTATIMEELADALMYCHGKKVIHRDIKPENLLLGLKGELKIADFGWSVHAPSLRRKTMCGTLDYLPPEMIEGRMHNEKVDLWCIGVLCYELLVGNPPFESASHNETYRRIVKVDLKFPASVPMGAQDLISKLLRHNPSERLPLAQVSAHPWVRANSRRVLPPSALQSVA
T14 sequence (Q96RR4 whole entry, the tested form may be a part): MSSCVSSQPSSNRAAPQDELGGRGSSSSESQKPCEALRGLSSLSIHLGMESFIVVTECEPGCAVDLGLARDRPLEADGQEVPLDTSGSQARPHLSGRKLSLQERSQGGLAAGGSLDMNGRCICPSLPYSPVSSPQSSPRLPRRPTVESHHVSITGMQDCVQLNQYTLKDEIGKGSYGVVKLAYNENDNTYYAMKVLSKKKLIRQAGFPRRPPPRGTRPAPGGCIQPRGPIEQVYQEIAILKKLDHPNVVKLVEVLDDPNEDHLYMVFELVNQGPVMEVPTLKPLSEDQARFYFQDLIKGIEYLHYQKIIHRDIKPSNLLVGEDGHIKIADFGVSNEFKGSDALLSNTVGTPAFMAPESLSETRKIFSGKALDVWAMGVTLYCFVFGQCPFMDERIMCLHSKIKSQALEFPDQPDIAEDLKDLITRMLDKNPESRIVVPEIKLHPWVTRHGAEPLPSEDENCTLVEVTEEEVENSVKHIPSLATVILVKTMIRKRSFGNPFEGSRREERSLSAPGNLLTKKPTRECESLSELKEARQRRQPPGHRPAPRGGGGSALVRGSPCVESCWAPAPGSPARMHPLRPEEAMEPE
T11 sequence (Q00532 whole entry, the tested form may be a part): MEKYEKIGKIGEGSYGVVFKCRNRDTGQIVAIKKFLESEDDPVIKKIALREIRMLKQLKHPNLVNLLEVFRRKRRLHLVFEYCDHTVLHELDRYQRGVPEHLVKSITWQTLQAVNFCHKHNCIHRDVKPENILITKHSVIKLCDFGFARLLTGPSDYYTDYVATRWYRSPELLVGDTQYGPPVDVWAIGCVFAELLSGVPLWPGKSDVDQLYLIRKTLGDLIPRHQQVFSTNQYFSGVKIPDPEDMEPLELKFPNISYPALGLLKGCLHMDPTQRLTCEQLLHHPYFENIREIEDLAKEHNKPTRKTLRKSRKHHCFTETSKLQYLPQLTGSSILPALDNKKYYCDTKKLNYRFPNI
T4 sequence (Q9Y243 whole entry, the tested form may be a part): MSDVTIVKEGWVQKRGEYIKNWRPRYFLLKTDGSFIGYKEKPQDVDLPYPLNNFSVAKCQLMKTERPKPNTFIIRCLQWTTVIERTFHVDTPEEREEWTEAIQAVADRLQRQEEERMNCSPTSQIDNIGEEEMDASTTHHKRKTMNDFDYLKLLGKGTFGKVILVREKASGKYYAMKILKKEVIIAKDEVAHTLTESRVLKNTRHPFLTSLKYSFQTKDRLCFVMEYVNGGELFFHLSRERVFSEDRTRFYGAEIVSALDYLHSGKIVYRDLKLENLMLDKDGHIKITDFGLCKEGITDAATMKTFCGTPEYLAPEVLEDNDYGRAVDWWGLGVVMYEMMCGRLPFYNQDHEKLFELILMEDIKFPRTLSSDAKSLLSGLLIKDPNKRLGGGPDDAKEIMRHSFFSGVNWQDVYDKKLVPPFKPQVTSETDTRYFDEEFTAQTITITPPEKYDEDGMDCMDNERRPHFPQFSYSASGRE
T2 sequence (P12931 whole entry, the tested form may be a part): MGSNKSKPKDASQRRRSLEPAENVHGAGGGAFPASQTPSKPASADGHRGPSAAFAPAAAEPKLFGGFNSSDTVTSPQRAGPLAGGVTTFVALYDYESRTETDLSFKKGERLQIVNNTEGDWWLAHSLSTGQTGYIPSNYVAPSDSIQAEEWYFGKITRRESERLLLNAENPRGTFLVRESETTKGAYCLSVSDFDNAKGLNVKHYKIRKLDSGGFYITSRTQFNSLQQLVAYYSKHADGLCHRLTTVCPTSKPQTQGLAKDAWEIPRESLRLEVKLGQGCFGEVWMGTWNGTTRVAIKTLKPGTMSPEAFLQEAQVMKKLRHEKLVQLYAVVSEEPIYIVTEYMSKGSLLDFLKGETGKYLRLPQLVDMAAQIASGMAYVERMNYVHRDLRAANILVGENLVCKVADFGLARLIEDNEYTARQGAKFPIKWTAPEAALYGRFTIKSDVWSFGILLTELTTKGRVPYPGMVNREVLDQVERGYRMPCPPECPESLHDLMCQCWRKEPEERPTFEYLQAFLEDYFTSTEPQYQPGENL

Turning to `COc1cc(S(C)(=O)=O)ccc1Nc1nc(N(C)C)c2c(Cl)c[nH]c2n1` [Compound 37], the dTm in assay [1] is -0.22 K; in assay [2], 0.09 K; in assay [3], -0.49 K; in [4], -0.25 K; in [5], 0.11 K; in [6], -0.72 K. The dTm in assay [7] is listed as 0.98 K; in assay [8], -0.0653 K; in assay [9], 0.96 K; in assay [10], -0.19 K; in assay [11], 0.44 K; in assay [12], -0.81 K. For the same compound, the dTm in assay [13] came to 3.54 K.
On to `COc1cc(C(=O)N2CCOCC2)c(F)cc1Nc1nc(N(C)C)c2c(Cl)c[nH]c2n1` [Compound 36], for which the dTm was -0.30 K in [1]; 0.60 K in [2]; -0.51 K in [3]; 0.29 K in assay [4]; 0.93 K in assay [5]; -0.64 K in [6]. The dTm in assay [7] was found to be 2.68 K; in [8], 1.54 K; in [9], 2.71 K; in [10] it was 3.22 K; in assay [11], 0.37 K; in [12], 2.56 K. This compound also displayed a dTm in [13] of 5.54 K.
`Cc1ccc(-n2nc(C(C)(C)C)cc2NC(=O)Nc2cccc(-c3c[nH]c4nc(Cl)nc(N5CCOCC5)c34)c2)cc1` [Compound 30]: the dTm is on record as 0.49 K in assay [1]; 0.05 K in assay [2]; 1.31 K in assay [3]; -0.99 K in [4]; 1.85 K in assay [5]; 5.14 K in assay [6]. Further, the dTm in assay [7] is listed as -0.50 K; in [8] it was -0.56 K; in assay [9], 3.39 K; in [10], 1.21 K; in assay [11], 3.90 K; in assay [12] it was 2.39 K. Besides, the dTm in assay [13] was 1.42 K.
As to `CC(=O)N1CCN(c2nc(Cl)nc3[nH]cc(-c4cccc(NC(=O)Nc5cc(C(C)(C)C)nn5-c5ccc(C)cc5)c4)c23)CC1` [Compound 31], the dTm is reported as 0.59 K in assay [1]; 0.41 K in assay [2]; 3.25 K in [3]; -0.49 K in [4]; 2.23 K in assay [5]; 6.29 K in assay [6]. Also, the dTm in [7] was -0.40 K; in assay [8] it was -1.00 K; in assay [9], 5.47 K; in assay [10], 0.55 K; in [11], 5.56 K; in assay [12] it was 2.84 K. Further, the dTm in assay [13] was found to be 0.84 K.
`O=C(Nc1ccc(F)cc1)C1(C(=O)Nc2cccc(-c3c[nH]c4ncnc(N5CCOCC5)c34)c2)CC1` [Compound 2]: the dTm in assay [2] is 0.49 K; in assay [3], 2.13 K; in assay [4], 0.65 K; in assay [5], 9.65 K; in assay [6], 7.33 K; in [7], -0.40 K. In addition, the dTm in [9] amounted to 2.87 K; in assay [10] it was 6.07 K; in assay [11] it was 2.59 K; in assay [14], 7.29 K; in [12], 4.21 K; in assay [13], 1.17 K.
As for `COc1cc(NC(=O)C2(C(=O)Nc3cccc(-c4c[nH]c5ncnc(N6CCOCC6)c45)c3)CC2)ccc1F` [Compound 21], the dTm in assay [2] is on record as 0.91 K; in [3], 3.07 K; in assay [4], 0.58 K; in [5] it was 9.11 K; in assay [6], 8.44 K; in assay [7] it was -0.29 K. The dTm amounted to 3.60 K in [9]; 6.06 K in assay [10]; 3.09 K in assay [11]; 8.27 K in assay [14]; 4.61 K in assay [12]; 1.81 K in assay [13].
Turning to `Cc1cc(NC(=O)C2(C(=O)Nc3cccc(-c4c[nH]c5ncnc(N6CCOCC6)c45)c3)CC2)ccc1F` [Compound 20], the dTm in [2] was 1.91 K; in [3], 5.73 K; in assay [4], 0.62 K; in assay [5] it was 11.54 K; in assay [6], 10.06 K; in [7], -0.28 K. Besides, the dTm in assay [9] is 6.61 K; in assay [10], 8.40 K; in [11] it was 5.67 K; in assay [14] it was 10.45 K; in assay [12], 5.31 K; in assay [13] it was 3.09 K.
As to `O=C(Nc1cccc(-c2c[nH]c3ncnc(N4CCOCC4)c23)c1)C1(C(=O)Nc2ccc(F)cc2F)CC1` [Compound 23], the dTm is on record as 0.45 K in assay [2]; 0.61 K in assay [3]; 0.68 K in [4]; 6.30 K in assay [5]; 6.69 K in [6]; -0.35 K in assay [7]. Further, the dTm in [9] worked out at 2.02 K; in [10], 6.33 K; in assay [11], 1.97 K; in assay [14], 5.31 K; in assay [12], 3.10 K; in [13], 1.59 K.
In the case of `Cc1ccc(NC(=O)C2(C(=O)Nc3cccc(-c4c[nH]c5ncnc(N6CCOCC6)c45)c3)CC2)cc1` [Compound 14], the dTm in assay [2] is given as 1.11 K; in [3], 1.13 K; in [4] it was 0.32 K; in assay [5] it was 8.21 K; in assay [6], 7.94 K; in assay [7], -0.14 K. The dTm in assay [9] amounted to 2.56 K; in assay [10], 7.04 K; in assay [11], 1.85 K; in assay [14], 4.94 K; in assay [12], 2.82 K; in assay [13], 0.90 K.
